This is an account of results in patent publication US9701670B2, “Pyrazolyl-ureas as kinase inhibitors” (RESPIVERT LIMITED, priority 2013, dated 2017).

Data set [1] addresses p38 MAPKα isoform (MAPK14) (Homo sapiens (Human), UniProt Q16539). In words: p38 MAPKα enzyme inhibition (FRET, Z-LYTE), Method 1. Type of data set: biochemical. As to conditions: Method 1 (Table 4a1).
The test system of data set [2] is Differentiated U937 cells. The data set can be described thus: (l) Cell viability: MTT assay. The data set is classed as cell-based, human. The settings on record: 1 μg/mL. The essentials:
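MTT read-out (1 h, absorbance 550 nm) on d-U937 cells after pre-incubation with 1 or 10 μg/mL compound under two regimes: 4 h, 5% FCS, or 24 h, 10% FCS RPMI1640. Values are percent loss of viability relative to vehicle (0.5% DMSO), so increases are reported as negative.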
(Tetrazolium dyes change colour on reduction, which living cells bring about.)

Where only a bound is given, the exact number is not on record here.

p38 MAPKα isoform (MAPK14), sequence (Q16539 whole entry, canonical isoform): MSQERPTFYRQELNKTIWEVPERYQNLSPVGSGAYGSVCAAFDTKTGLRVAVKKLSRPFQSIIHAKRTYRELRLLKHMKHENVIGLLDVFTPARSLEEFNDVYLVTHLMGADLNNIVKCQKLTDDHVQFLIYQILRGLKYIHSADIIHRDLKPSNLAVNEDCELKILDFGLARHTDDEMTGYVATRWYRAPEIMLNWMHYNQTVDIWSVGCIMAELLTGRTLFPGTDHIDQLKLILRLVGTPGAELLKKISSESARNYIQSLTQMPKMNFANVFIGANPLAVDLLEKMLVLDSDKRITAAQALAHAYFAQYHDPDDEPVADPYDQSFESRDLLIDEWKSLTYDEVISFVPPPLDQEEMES

In data set [1], `COc1ccc(C(=O)NCCO)cc1Nc1nccc(Oc2ccc(NC(=O)Nc3cc(C(C)C)nn3-c3ccc(C)cc3)c3ccccc23)n1` [Example 32, N-(2-hydroxyethyl)-3-((4-((4-(3-(3-isopropyl-1-(p-tolyl)-1H-pyrazol-5-yl)ureido)naphthalen-1-yl)oxy)pyrimidin-2-yl)amino)-4-methoxybenzamide] displayed a half-inhibitory concentration (IC50) of 1 nM. In data set [2], the “Cell viability at time point in d-U937 cells 4 h” value is “−ve (−ve and +ve indicate that the value is below and above respectively, the no significant effect threshold, defined as 30% inhibition at 1 μg/mL at the time point indicated.)”; the “Cell viability at time point in d-U937 cells 24 h” value was “−ve (−ve and +ve indicate that the value is below and above respectively, the no significant effect threshold, defined as 30% inhibition at 1 μg/mL at the time point indicated.)”.
Compound `COc1ccc(C(=O)NCCO)cc1Nc1nccc(Oc2ccc(NC(=O)Nc3cc(C(C)(C)C)nn3-c3ccc(C)cc3)c3ccccc23)n1` [Example 33, 3-((4-((4-(3-(3-(tert-butyl)-1-(p-tolyl)-1H-pyrazol-5-yl)ureido)naphthalen-1-yl)oxy)pyrimidin-2-yl)amino)-N-(2-hydroxyethyl)-4-methoxybenzamide] came in with an IC50 in data set [1] of 4 nM. Further, in data set [2], the “Cell viability at time point in d-U937 cells 4 h” value was “−ve (−ve and +ve indicate that the value is below and above respectively, the no significant effect threshold, defined as 30% inhibition at 1 μg/mL at the time point indicated.)”; the “Cell viability at time point in d-U937 cells 24 h” value was “−ve (−ve and +ve indicate that the value is below and above respectively, the no significant effect threshold, defined as 30% inhibition at 1 μg/mL at the time point indicated.)”.
In turn, `COc1ccc(-n2nc(C(C)C)cc2NC(=O)Nc2ccc(Oc3ccnc(Nc4cc(C(=O)NCCO)ccc4OC)n3)c3ccccc23)cc1` [Example 34, N-(2-hydroxyethyl)-3-((4-((4-(3-(3-isopropyl-1-(4-methoxyphenyl)-1H-pyrazol-5-yl)ureido)naphthalen-1-yl)oxy)pyrimidin-2-yl)amino)-4-methoxybenzamide] yielded a half-maximal inhibitory concentration (IC50) in data set [1] of less than 1 nM. Moreover, in data set [2], the “Cell viability at time point in d-U937 cells 4 h” value was “+ve (−ve and +ve indicate that the value is below and above respectively, the no significant effect threshold, defined as 30% inhibition at 1 μg/mL at the time point indicated.)”; the “Cell viability at time point in d-U937 cells 24 h” value is “−ve (−ve and +ve indicate that the value is below and above respectively, the no significant effect threshold, defined as 30% inhibition at 1 μg/mL at the time point indicated.)”.
`COc1cc(C(=O)NCCN(C)C)ccc1Nc1nccc(Oc2ccc(NC(=O)Nc3cc(C(C)C)nn3-c3ccc(C)cc3)c3ccccc23)n1` [Example 35, N-(2-(dimethylamino)ethyl)-4-((4-((4-(3-(3-isopropyl-1-(p-tolyl)-1H-pyrazol-5-yl)ureido)naphthalen-1-yl)oxy)pyrimidin-2-yl)amino)-3-methoxybenzamide]: in data set [1], the half-maximal inhibitory concentration (IC50) is less than 1 nM. Besides, in data set [2], the “Cell viability at time point in d-U937 cells 4 h” value is “−ve (−ve and +ve indicate that the value is below and above respectively, the no significant effect threshold, defined as 30% inhibition at 1 μg/mL at the time point indicated.)”; the “Cell viability at time point in d-U937 cells 24 h” value was “−ve (−ve and +ve indicate that the value is below and above respectively, the no significant effect threshold, defined as 30% inhibition at 1 μg/mL at the time point indicated.)”.
`COc1cc(C(=O)NCCN2CCOCC2)ccc1Nc1nccc(Oc2ccc(NC(=O)Nc3cc(C(C)(C)C)nn3-c3ccc(C)cc3)c3ccccc23)n1` [Example 37, 4-((4-((4-(3-(3-(tert-butyl)-1-(p-tolyl)-1H-pyrazol-5-yl)ureido)naphthalen-1-yl)oxy)pyrimidin-2-yl)amino)-3-methoxy-N-(2-morpholinoethyl)benzamide] came in with an IC50 in data set [1] of 44 nM. In addition, in data set [2], the “Cell viability at time point in d-U937 cells 4 h” value was “−ve (−ve and +ve indicate that the value is below and above respectively, the no significant effect threshold, defined as 30% inhibition at 1 μg/mL at the time point indicated.)”; the “Cell viability at time point in d-U937 cells 24 h” value is “−ve (−ve and +ve indicate that the value is below and above respectively, the no significant effect threshold, defined as 30% inhibition at 1 μg/mL at the time point indicated.)”.
In turn, `COc1ccc(-n2nc(C(C)C)cc2NC(=O)Nc2ccc(Oc3ccnc(Nc4ccc(C(=O)NCCN5CCOCC5)cc4OC)n3)c3ccccc23)cc1` [Example 38] showed an IC50 in data set [1] of 12 nM. In addition, in data set [2], the “Cell viability at time point in d-U937 cells 4 h” value was “−ve (−ve and +ve indicate that the value is below and above respectively, the no significant effect threshold, defined as 30% inhibition at 1 μg/mL at the time point indicated.)”; the “Cell viability at time point in d-U937 cells 24 h” value is “−ve (−ve and +ve indicate that the value is below and above respectively, the no significant effect threshold, defined as 30% inhibition at 1 μg/mL at the time point indicated.)”.
The compound `COc1cc(C(=O)NCCO)ccc1Nc1nccc(Oc2ccc(NC(=O)Nc3cc(C(C)C)nn3-c3ccc(C)cc3)c3ccccc23)n1` [Example 39, N-(2-hydroxyethyl)-4-((4-((4-(3-(3-isopropyl-1-(p-tolyl)-1H-pyrazol-5-yl)ureido)naphthalen-1-yl)oxy)pyrimidin-2-yl)amino)-3-methoxybenzamide] displayed an IC50 in data set [1] of 7 nM. Further, in data set [2], the “Cell viability at time point in d-U937 cells 4 h” value is “−ve (−ve and +ve indicate that the value is below and above respectively, the no significant effect threshold, defined as 30% inhibition at 1 μg/mL at the time point indicated.)”; the “Cell viability at time point in d-U937 cells 24 h” value was “−ve (−ve and +ve indicate that the value is below and above respectively, the no significant effect threshold, defined as 30% inhibition at 1 μg/mL at the time point indicated.)”.
As to `Cc1ccc(-n2nc(C(C)(C)C)cc2NC(=O)Nc2ccc(Oc3ccnc(Nc4cc(C)cc(C(N)=O)c4)n3)c3ccccc23)cc1` [Example 40, 3-((4-((4-(3-(3-(tert-butyl)-1-(p-tolyl)-1H-pyrazol-5-yl)ureido)naphthalen-1-yl)oxy)pyrimidin-2-yl)amino)-5-methylbenzamide], the IC50 in data set [1] is 52 nM. In data set [2], the “Cell viability at time point in d-U937 cells 4 h” value is “−ve (−ve and +ve indicate that the value is below and above respectively, the no significant effect threshold, defined as 30% inhibition at 1 μg/mL at the time point indicated.)”; the “Cell viability at time point in d-U937 cells 24 h” value is “−ve (−ve and +ve indicate that the value is below and above respectively, the no significant effect threshold, defined as 30% inhibition at 1 μg/mL at the time point indicated.)”.
Turning to `COc1ccc(-n2nc(C(C)(C)C)cc2NC(=O)Nc2ccc(Oc3ccnc(Nc4cc(OC)cc(C(N)=O)c4)n3)c3ccccc23)cc1` [Example 41, 3-((4-((4-(3-(3-(tert-butyl)-1-(4-methoxyphenyl)-1H-pyrazol-5-yl)ureido)naphthalen-1-yl)oxy)pyrimidin-2-yl)amino)-5-methoxybenzamide], the half-inhibitory concentration (IC50) in data set [1] turned out to be 50 nM. Further, in data set [2], the “Cell viability at time point in d-U937 cells 4 h” value is “−ve (−ve and +ve indicate that the value is below and above respectively, the no significant effect threshold, defined as 30% inhibition at 1 μg/mL at the time point indicated.)”; the “Cell viability at time point in d-U937 cells 24 h” value was “−ve (−ve and +ve indicate that the value is below and above respectively, the no significant effect threshold, defined as 30% inhibition at 1 μg/mL at the time point indicated.)”.
`COc1ccc(-n2nc(C(C)(C)C)cc2NC(=O)Nc2ccc(Oc3ccnc(Nc4cc(Br)cc(C(N)=O)c4)n3)c3ccccc23)cc1` [Example 42, 3-bromo-5-((4-((4-(3-(3-(tert-butyl)-1-(4-methoxyphenyl)-1H-pyrazol-5-yl)ureido)naphthalen-1-yl)oxy)pyrimidin-2-yl)amino)benzamide]: the IC50 in data set [1] was found to be 167 nM. Further, in data set [2], the “Cell viability at time point in d-U937 cells 4 h” value is “−ve (−ve and +ve indicate that the value is below and above respectively, the no significant effect threshold, defined as 30% inhibition at 1 μg/mL at the time point indicated.)”; the “Cell viability at time point in d-U937 cells 24 h” value is “−ve (−ve and +ve indicate that the value is below and above respectively, the no significant effect threshold, defined as 30% inhibition at 1 μg/mL at the time point indicated.)”.
`COc1cc(Nc2nccc(Oc3ccc(NC(=O)Nc4cc(C(C)(C)C)nn4-c4ccc(C)cc4)c4ccccc34)n2)cc(C(=O)NCCN(C)C)c1` [Example 43, 3-((4-((4-(3-(3-(tert-butyl)-1-(p-tolyl)-1H-pyrazol-5-yl)ureido)naphthalen-1-yl)oxy)pyrimidin-2-yl)amino)-N-(2-(dimethylamino)ethyl)-5-methoxybenzamide] gave a 50% inhibitory concentration (IC50) in data set [1] of 4 nM. In data set [2], the “Cell viability at time point in d-U937 cells 4 h” value was “−ve (−ve and +ve indicate that the value is below and above respectively, the no significant effect threshold, defined as 30% inhibition at 1 μg/mL at the time point indicated.)”; the “Cell viability at time point in d-U937 cells 24 h” value is “−ve (−ve and +ve indicate that the value is below and above respectively, the no significant effect threshold, defined as 30% inhibition at 1 μg/mL at the time point indicated.)”.
Regarding `Cc1ccc(-n2nc(C(C)C)cc2NC(=O)Nc2ccc(Oc3ccnc(Nc4cc(C)cc(C(=O)NCCN5CCOCC5)c4)n3)c3ccccc23)cc1` [Example 44, 3-((4-((4-(3-(3-isopropyl-1-(p-tolyl)-1H-pyrazol-5-yl)ureido)naphthalen-1-yl)oxy)pyrimidin-2-yl)amino)-5-methyl-N-(2-morpholinoethyl)benzamide], the IC50 in data set [1] was less than 1 nM. For the same compound, in data set [2], the “Cell viability at time point in d-U937 cells 4 h” value was “−ve (−ve and +ve indicate that the value is below and above respectively, the no significant effect threshold, defined as 30% inhibition at 1 μg/mL at the time point indicated.)”; the “Cell viability at time point in d-U937 cells 24 h” value was “−ve (−ve and +ve indicate that the value is below and above respectively, the no significant effect threshold, defined as 30% inhibition at 1 μg/mL at the time point indicated.)”.

Broadly, the IC50 is the concentration needed to halve the response being measured. Higher therefore signals lower potency.
